In patent publication US20150119373A1, “NOVEL BETULINIC ACID DERIVATIVES AS HIV INHIBITORS” (HETERO RESEARCH FOUNDATION, priority 2012, published 2015):
Read-outs that look alike come from different tables or passages of the source.

How the values were obtained:
[1] = Single dose oral pharmacokinetic study in mice; assay type: in vivo; settings: for Cmax / Tmax / AUC(0-t) / AUC(0-inf): mouse, plasma
Experimental: The test item was administered through oral route to animals (rat/mice) at 30 mg/kg dose in a suitable vehicle at 10 ml/kg dose volume. Blood samples (˜50 uL at each time point) were collected from retro-orbital plexus using K3 EDTA as anticoagulant in eppendorf tubes at defined time intervals under light ether anesthesia. The samples were centrifuged at 3500×g to separate plasma and stored at −80° C. until analysis.
Sample analysis: Test samples were analyzed using LC-MS-MS after developing fit-for-purpose method for each of test compound.

[2] = system: HIV-1 strain 92HT599; assay: Antiviral activity: p24 estimation in MT2 cells infected with HIV-1 strain 92HT599; assay type: cell-based; settings: Human immunodeficiency virus 1, MT2 cells, HIV-1 92HT599, ~96 hours, p24; for inhibition at 0.1 µM: 100 nM, read-out: Antiviral activity % inhibition 100 nM; for inhibition at 1 µM: 1000 nM, read-out: Antiviral activity % inhibition 1000 nM
Procedure, shortened: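 Infection of MT2 cells used 10 TCID50/30000 cells, with compound present at ≤1% DMSO for ~96 h. p24 in well aliquots was quantified by kit. Percent inhibition is relative to vehicle controls.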

[3] = Cyto-toxicity assay (MTT) in MT2 cells without virus; assay type: cell-based; settings: human
Experimental: For cyto-toxicity assay the same amount of MT2 cells as in antiviral assay without virus was added to the 96 well plates. The cyto-toxicity was measured using MTT reagent in parallel with p24 estimation. The percent viability is calculated in comparison with vehicle control.

[4] = Mice oral PK @30 mg/kg (Table 5)
[5] = Mice oral PK @30 mg/kg (Table 5), read-out: AUC 0-t
[6] = Oral PK @ 30 mg/ kg dose in mice (Table 6)
[7] = Oral PK @ 30 mg/ kg dose in mice (Table 6), read-out: AUCt

Structure (SMILES) | Cmax [1, 4] [ng/mL] | Tmax [1, 4] [h] | AUC(0-t) [1, 5] [ng·h/mL] | inhibition at 0.1 µM [2] [%] | inhibition at 1 µM [2] [%] | viability at 100 nM [3] [%] | viability at 1000 nM [3] [%] | Tlast [1, 6] [h] | AUC(0-inf) [1, 6] [ng·h/mL] | Cmax [1, 6] [ng/mL] | Tmax [1, 6] [h] | AUC(0-t) [1, 7] [ng·h/mL]
Cc1nnc([C@H]2C[C@@H](NC(=O)[C@]34CC[C@@H](C5(C)CC5)[C@@H]3[C@H]3CC[C@@H]5[C@@]6(C)CC[C@H](OC(=O)[C@H]7C[C@@H](C(=O)O)C7(C)C)C(C)(C)[C@@H]6CC[C@@]5(C)[C@]3(C)CC4)C2(C)C)o1 [Example 17, (1R,3S)-3-(((1R,3aS,5aR,5bR,7aR,9S,11aR,11bR,13aR,13bR)-3a-((1R,3S)-2,2-dimethyl-3-(5-methyl-1,3,4-oxadiazol-2-yl)cyclobutylcarbamoyl)-5a,5b,8,8,11a-pentamethyl-1-(1-methylcyclopropyl)icosahydro-1H-cyclopenta[a]chrysen-9-yloxy)carbonyl)-2,2-dimethyl cyclobutanecarboxylicacid] | 5940 | 4.5 | 88300 | 100 | 100 | 77 | 89 |  |  |  |  | 
COCCOC1CCN(C(=O)[C@]23CC[C@@H](C4(C)CC4)[C@@H]2[C@H]2CC[C@@H]4[C@@]5(C)CC[C@H](OC(=O)CC(C)(C)C(=O)O)C(C)(C)[C@@H]5CC[C@@]4(C)[C@]2(C)CC3)CC1 [Example 41, 4-(((1R,3aS,5aR,5bR,7aR,9S,11aR,11bR,13aR,13bR)-3a-(4-(2-methoxyethoxyl)piperidine-1-carbonyl)-5a,5b,8,8,11a-pentamethyl-1-(1-methylcyclopropyl)icosahydro-1H-cyclopenta[a]chrysen-9-yl)oxy)-2,2-dimethyl-4-oxobutanoic acid] |  |  |  | 97 | 99 | 86 | 86 | 48 | 240000 | 9200 | 6.5 | 214000
CC(C)(CC(=O)O[C@H]1CC[C@]2(C)[C@H]3CC[C@@H]4[C@H]5[C@H]([C@]6(C)CO6)CC[C@]5(C(=O)N[C@@H]5C[C@H](C(=O)N6CCCCC6)C5(C)C)CC[C@@]4(C)[C@]3(C)CC[C@H]2C1(C)C)C(=O)O [Example 14, 4-((1R,3aS,5aR,5bR,7aR,9S,11aR,11bR,13aR,13bS)-3a-((1R,3S)-2,2-dimethyl-3-(piperidine-1-carbonyl)cyclobutylcarbamoyl)-5a,5b,8,8,11a-pentamethyl-1-(2-methyloxiran-2-yl)icosa hydro-1H-cyclopenta[a]chrysen-9-yloxy)-2,2-dimethyl-4-oxobutanoicacid] | 4450 | 0.63 | 15200 | 100 | 100 | 86 | 88 |  |  |  |  | 
C=C(C)[C@@H]1CC[C@]2(C(=O)N[C@@H]3C[C@H](c4nnc(C)o4)C3(C)C)CC[C@]3(C)[C@H](CC[C@@H]4[C@@]5(C)CC[C@H](OC(=O)[C@H]6C[C@@H](C(=O)O)C6(C)C)C(C)(C)[C@@H]5CC[C@]43C)[C@@H]12 [Example 21, (1R,3S)-3-(((1R,3aS,5aR,5bR,7aR,9S,11aR,11bR,13aR,13bR)-3a-((1R,3S)-2,2-dimethyl-3-(5-methyl-1,3,4-oxadiazol-2-yl)cyclobutylcarbamoyl)-5a,5b,8,8,11a-pentamethyl-1-(prop-1-en-2-yl)icosahydro-1H-cyclopenta[a]chrysen-9-yloxy)carbonyl)-2,2-dimethylcyclobutane carboxylicacid] |  |  |  | 100 | 100 | 94 | 96 | 24 | 185000 | 5900 | 7 | 95500
CC1([C@@H]2CC[C@]3(C(=O)N[C@@H]4C[C@H](C(=O)N5CCCCC5)C4(C)C)CC[C@]4(C)[C@H](CC[C@@H]5[C@@]6(C)CC[C@H](OC(=O)[C@H]7C[C@@H](C(=O)O)C7(C)C)C(C)(C)[C@@H]6CC[C@]54C)[C@@H]23)CC1 [Example 23, (1R,3S)-3-((((1R,3aS,5aR,5bR,7aR,9S,11aR,11bR,13aR,13bR)-3a-(((1R,3S)-2,2-dimethyl-3-(piperidine-1-carbonyl)cyclobutyl)carbamoyl)-5a,5b,8,8,11a-pentamethyl-1-(1-methylcyclopropyl)icosahydro-1H-cyclopenta[a]chrysen-9-yl)oxy)carbonyl)-2,2-dimethylcyclobutane-1-carboxylic acid] |  |  |  | 100 | 100 | 100 | 93 | 48 | 628000 | 11000 | 4.5 | 324000
[2H]C([2H])([2H])C(CC(=O)O[C@H]1CC[C@]2(C)[C@H]3CC[C@@H]4[C@H]5[C@H](C6(C)CC6)CC[C@]5(C(=O)N[C@@H]5C[C@H](C(=O)N6CCCCC6)C5(C)C)CC[C@@]4(C)[C@]3(C)CC[C@H]2C1(C)C)(C(=O)O)C([2H])([2H])[2H] [Example 22, 4-(((1R,3aS,5aR,5bR,7aR,9S,11aR,11bR,13aR,13bR)-3a-(((1R,3S)-2,2-dimethyl-3-(piperidine-1-carbonyl)cyclobutyl)carbamoyl)-5a,5b,8,8,11a-pentamethyl-1-(1-methylcyclopropyl)icosahydro-1H-cyclopenta[a]chrysen-9-yl)oxy)-2,2-bis(methyl-d3)-4-oxobutanoic acid] |  |  |  | 100 | 100 | 100 | 87 | 24 | 79000 | 10200 | 1.8 | 63900
CC(C)(CC(=O)O[C@H]1CC[C@]2(C)[C@H]3CC[C@@H]4[C@H]5[C@H](C6(C)CC6)CC[C@]5(C(=O)N5CCC(C(=O)NCCN6CCOCC6)CC5)CC[C@@]4(C)[C@]3(C)CC[C@H]2C1(C)C)C(=O)O [Example 49, 2,2-dimethyl-4-oxo-4-(((1R,3aS,5aR,5bR,7aR,9S,11aR,11bR,13aR,13bR)-5a,5b,8,8,11a-pentamethyl-1-(1-methylcyclopropyl)-3a-(4-((2-morpholinoethyl)carbamoyl)piperidine-1-carbonyl)icosahydro-1H-cyclopenta[a]chrysen-9-yl)oxy)butanoic acid] |  |  |  | 99 | 98 | 85 | 88 | 48 | 38800 | 5600 | 1.3 | 38700
CCN1CCN(C(=O)[C@]23CC[C@@H](C4(C)CC4)[C@@H]2[C@H]2CC[C@@H]4[C@@]5(C)CC[C@H](OC(=O)CC(C)(C)C(=O)O)C(C)(C)[C@@H]5CC[C@@]4(C)[C@]2(C)CC3)CC1 [Example 12, 4-((1R,3aS,5aR,5bR,7aR,9S,11aR,11bR,13aR,13bR)-3a-(4-ethylpiperazine-1-carbonyl)-5a,5b,8,8,11a-pentamethyl-1-(1-methylcyclopropyl)icosahydro-1H-cyclopenta[a]chrysen-9-yloxy)-2,2-dimethyl-4-oxobutanoicacid] | 8160 | 4 | 201000 | 100 | 100 | 100 | 99 |  |  |  |  | 
